Experimental data taken from patent US20260184663A1, “INDENE COMPOUNDS, PHARMACEUTICAL COMPOSITIONS THEREOF, AND THEIR THERAPEUTIC APPLICATIONS” (NucMito Pharmaceuticals co. Ltd., priority 2022, published 2026).

How the values were obtained:
Type in all cases: cell-based
[1] = tested on: alpha-smooth muscle actin (α-SMA); experiment: Inhibition of TGF-β induced expression of alpha-smooth muscle actin (α-SMA) in CFSC cells (western blot); settings: compound at 10 μM, TGF-β (10 ng/mL), 24 hours, band intensity vs TGF-β only
In short: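 Values are percent reduction of α-SMA band intensity relative to cells given TGF-β alone, quantified by Western blot densitometry with β-actin probed. Compound was applied at 10 μM alongside 10 ng/mL TGF-β to serum-free CFSC cultures for 24 h at 37 °C.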

[2] = tested on: MDA-MB-231 (breast cancer); experiment: Antiproliferative activity (CCK-8 cell viability), MDA-MB-231; settings: Homo sapiens, 72 h, read-out: Antiproliferative activity in cancerous cells, MDA-MB-231 (inhibition of cell growth); for inhibition at 3.3 µM: Compound concentration: 3.3 μM; for inhibition at 10 µM: Compound concentration: 10 μM
In short: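 MDA-MB-231 breast cancer cells, grown in DMEM with 10% FBS, were plated in 96-well plates at 2,000-5,000 cells/well. Once attached, they were exposed to compound and incubated at 37° C. for 72 h. Viability was then measured with CCK-8 (10 μL per well, 4 h at 37° C.) by absorbance at 450 nm, relative to DMSO vehicle wells.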

HepG2 (liver cancer) = experiment: Antiproliferative activity (CCK-8 cell viability), HepG2; settings: Homo sapiens, 72 h; for inhibition at 3.3 µM: Compound concentration: 3.3 μM; for inhibition at 3.3 µM / inhibition at 10 µM: read-out: Antiproliferative activity in cancerous cells, HepG2 (inhibition of cell growth); for inhibition at 10 µM: Compound concentration: 10 μM
In short: (§1)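 Cells grown in DMEM (HepG2, SW480), MEM (HeLa) or F-12K (A549), each with 10% FBS, then exposed to compound at 3.3, 10 or 30 μM for 72 h at 37 °C. CCK-8 absorbance at 450 nm; viability expressed as percent of DMSO-treated cells, graded as growth inhibition bands.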

SW480 (colon cancer) = experiment: Antiproliferative activity (CCK-8 cell viability), SW480; settings: Homo sapiens, 72 h; for inhibition at 3.3 µM: Compound concentration: 3.3 μM; for inhibition at 3.3 µM / inhibition at 10 µM: read-out: Antiproliferative activity in cancerous cells, SW480 (inhibition of cell growth); for inhibition at 10 µM: Compound concentration: 10 μM
In short: as §1

[3] = tested on: B16F10 (malignant melanoma); experiment: Antiproliferative activity (CCK-8 cell viability), B16F10; settings: Mus musculus, 72 h; for inhibition at 3.3 µM: B16-F10, Compound concentration: 3.3 μM; for inhibition at 3.3 µM / inhibition at 10 µM: read-out: Antiproliferative activity in cancerous cells, B16F10 (inhibition of cell growth); for inhibition at 10 µM: B16-F10, Compound concentration: 10 μM
In short: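 B16F10 melanoma cells grown in DMEM with 10% FBS were plated in 96-well plates at 2,000-5,000 cells/well. After attachment they were exposed to compound in medium for 72 h at 37° C. CCK-8 solution (10 μL) was then added, and after 4 h at 37° C absorbance was read at 450 nm.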

[4] = tested on: A431 (epidermoid carcinoma); experiment: Antiproliferative activity (CCK-8 cell viability), A431; settings: Homo sapiens, 72 h; for inhibition at 3.3 µM: A-431, Compound concentration: 3.3 μM; for inhibition at 3.3 µM / inhibition at 10 µM: read-out: Antiproliferative activity in cancerous cells, A431 (inhibition of cell growth); for inhibition at 10 µM: A-431, Compound concentration: 10 μM
In short: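 A431 epidermoid carcinoma cells grown in DMEM with 10% FBS were plated at 2,000-5,000 cells/well in 96-well plates. After attachment they were exposed to compound at 3.3 μM, 10 μM, or 30 μM for 72 h at 37° C. Viability was then assessed by CCK-8 against DMSO vehicle-treated wells.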

[5] = tested on: A549 (lung adenocarcinoma); experiment: Antiproliferative activity (CCK-8 cell viability), A549; settings: Homo sapiens, 72 h; for inhibition at 3.3 µM: Compound concentration: 3.3 μM; for inhibition at 3.3 µM / inhibition at 10 µM: read-out: Antiproliferative activity in cancerous cells, A549 (inhibition of cell growth); for inhibition at 10 µM: Compound concentration: 10 μM
In short: as §1

HeLa (cervical cancer) = experiment: Antiproliferative activity (CCK-8 cell viability), HeLa; settings: Homo sapiens, 72 h, read-out: Antiproliferative activity in cancerous cells, HELA (inhibition of cell growth); for inhibition at 3.3 µM: Compound concentration: 3.3 μM; for inhibition at 10 µM: Compound concentration: 10 μM
In short: as §1

## O=C(O)CC1=C(Cc2ccc(C(F)(F)F)cc2)/C(=C/c2cccc(Oc3ccccc3)c2)c2ccc(F)cc21 [C13, (Z)-2-(5-Fluoro-1-(3-phenoxybenzylidene)-2-(4-(trifluoromethyl)benzyl)-1H-inden-3-yl)acetic acid]
[1]
  inhibition at 10 µM: > 80%
[2]
  inhibition at 3.3 µM: ≥ 50%
  inhibition at 10 µM: ≥ 50%
HepG2 (liver cancer)
  inhibition at 3.3 µM: ≥ 50%
  inhibition at 10 µM: ≥ 50%
SW480 (colon cancer)
  inhibition at 3.3 µM: ≥ 50%
  inhibition at 10 µM: ≥ 50%
[3]
  inhibition at 3.3 µM: ≥ 50%
  inhibition at 10 µM: ≥ 50%
[4]
  inhibition at 3.3 µM: ≥ 50%
  inhibition at 10 µM: ≥ 50%
[5]
  inhibition at 3.3 µM: ≥ 50%
  inhibition at 10 µM: ≥ 50%
HeLa (cervical cancer)
  inhibition at 3.3 µM: ≥ 50%
  inhibition at 10 µM: ≥ 50%

## CCc1ccc2c(c1)C(CC(=O)O)=C(C)/C2=C/c1cccc(Oc2ccccc2)c1 [C18, (Z)-2-(5-Ethyl-2-methyl-1-(3-phenoxybenzylidene)-1H-inden-3-yl)acetic acid]
[1]
  inhibition at 10 µM: < 30%
[2]
  inhibition at 3.3 µM: 30 to 50%
  inhibition at 10 µM: ≥ 50%
HepG2 (liver cancer)
  inhibition at 3.3 µM: 30 to 50%
  inhibition at 10 µM: ≥ 50%
SW480 (colon cancer)
  inhibition at 3.3 µM: ≥ 50%
  inhibition at 10 µM: ≥ 50%
[3]
  inhibition at 3.3 µM: ≥ 50%
  inhibition at 10 µM: ≥ 50%
[4]
  inhibition at 3.3 µM: ≥ 50%
  inhibition at 10 µM: ≥ 50%
[5]
  inhibition at 3.3 µM: 30 to 50%
  inhibition at 10 µM: ≥ 50%
HeLa (cervical cancer)
  inhibition at 3.3 µM: < 30%
  inhibition at 10 µM: 30 to 50%

## CC1=C(CC(=O)O)c2cc(F)ccc2/C1=C\c1cccc(COc2cccc(C(C)(C)C)c2)c1 [B21, (Z)-2-(1-(3-((3-(Tert-butyl)phenoxy)methyl)benzylidene)-5-fluoro-2-methyl-1H-inden-3-yl)acetic acid]
[1]
  inhibition at 10 µM: > 80%
[2]
  inhibition at 3.3 µM: ≥ 50%
  inhibition at 10 µM: ≥ 50%
HepG2 (liver cancer)
  inhibition at 3.3 µM: < 30%
  inhibition at 10 µM: 30 to 50%
SW480 (colon cancer)
  inhibition at 3.3 µM: < 30%
  inhibition at 10 µM: 30 to 50%
[3]
  inhibition at 3.3 µM: < 30%
  inhibition at 10 µM: ≥ 50%
[4]
  inhibition at 3.3 µM: < 30%
  inhibition at 10 µM: 30 to 50%
[5]
  inhibition at 3.3 µM: < 30%
  inhibition at 10 µM: ≥ 50%
HeLa (cervical cancer)
  inhibition at 3.3 µM: < 30%
  inhibition at 10 µM: ≥ 50%

## O=C(O)CC1=C(Cc2ccc(Oc3ccc(F)cc3)cc2)/C(=C/c2ccc(F)cc2)c2ccc(F)cc21 [A105, (Z)-2-(5-Fluoro-1-(4-fluorobenzylidene)-2-(4-(4-fluorophenoxy)benzyl)-1H-inden-3-yl)acetic acid]
[1]
  inhibition at 10 µM: > 80%
[2]
  inhibition at 3.3 µM: ≥ 50%
  inhibition at 10 µM: ≥ 50%
HepG2 (liver cancer)
  inhibition at 3.3 µM: ≥ 50%
  inhibition at 10 µM: ≥ 50%
SW480 (colon cancer)
  inhibition at 3.3 µM: ≥ 50%
  inhibition at 10 µM: ≥ 50%
[3]
  inhibition at 3.3 µM: ≥ 50%
  inhibition at 10 µM: ≥ 50%
[4]
  inhibition at 3.3 µM: ≥ 50%
  inhibition at 10 µM: ≥ 50%
[5]
  inhibition at 3.3 µM: ≥ 50%
  inhibition at 10 µM: ≥ 50%
HeLa (cervical cancer)
  inhibition at 3.3 µM: ≥ 50%
  inhibition at 10 µM: ≥ 50%

## CCc1ccc(/C=C2/C(Cc3ccc(Oc4ccc(F)cc4)cc3)=C(CC(=O)O)c3cc(F)ccc32)cc1 [A104, (Z)-2-(1-(4-Ethylbenzylidene)-5-fluoro-2-(4-(4-fluorophenoxy)benzyl)-1H-inden-3-yl)acetic acid]
[1]
  inhibition at 10 µM: > 80%
[2]
  inhibition at 3.3 µM: ≥ 50%
  inhibition at 10 µM: ≥ 50%
HepG2 (liver cancer)
  inhibition at 3.3 µM: ≥ 50%
  inhibition at 10 µM: ≥ 50%
SW480 (colon cancer)
  inhibition at 3.3 µM: ≥ 50%
  inhibition at 10 µM: ≥ 50%
[3]
  inhibition at 3.3 µM: ≥ 50%
  inhibition at 10 µM: ≥ 50%
[4]
  inhibition at 3.3 µM: ≥ 50%
  inhibition at 10 µM: ≥ 50%
[5]
  inhibition at 3.3 µM: ≥ 50%
  inhibition at 10 µM: ≥ 50%
HeLa (cervical cancer)
  inhibition at 3.3 µM: ≥ 50%
  inhibition at 10 µM: ≥ 50%

## O=C(O)CC1=C/C(=C/c2cccc(Oc3ccccc3)c2)c2cc(OCC(F)(F)F)ccc21 [C15, (Z)-2-(1-(3-Phenoxybenzylidene)-6-(2,2,2-trifluoroethoxy)-1H-inden-3-yl)acetic acid]
[1]
  inhibition at 10 µM: < 30%
[2]
  inhibition at 3.3 µM: 30 to 50%
  inhibition at 10 µM: ≥ 50%
HepG2 (liver cancer)
  inhibition at 3.3 µM: < 30%
  inhibition at 10 µM: < 30%
HepG2 (liver cancer); Compound concentration: 30 μM, read-out: Antiproliferative activity in cancerous cells, HepG2
  inhibition at 30 µM: 30 to 50%
SW480 (colon cancer)
  inhibition at 3.3 µM: < 30%
  inhibition at 10 µM: < 30%
SW480 (colon cancer); Compound concentration: 30 μM, read-out: Antiproliferative activity in cancerous cells, SW480
  inhibition at 30 µM: < 30%
[3]
  inhibition at 3.3 µM: < 30%
  inhibition at 10 µM: < 30%
[3]; B16-F10, Compound concentration: 30 μM, read-out: Antiproliferative activity in cancerous cells, B16F10
  inhibition at 30 µM: 30 to 50%
[4]
  inhibition at 3.3 µM: < 30%
  inhibition at 10 µM: < 30%
[4]; A-431, Compound concentration: 30 μM, read-out: Antiproliferative activity in cancerous cells, A431
  inhibition at 30 µM: < 30%
[5]
  inhibition at 3.3 µM: < 30%
  inhibition at 10 µM: < 30%
[5]; Compound concentration: 30 μM, read-out: Antiproliferative activity in cancerous cells, A549
  inhibition at 30 µM: < 30%
HeLa (cervical cancer)
  inhibition at 3.3 µM: < 30%
  inhibition at 10 µM: 30 to 50%

## CCC1=C(CC(=O)O)c2cc(F)ccc2/C1=C\c1ccc(Oc2ccc(F)cc2)cc1 [C6, (Z)-2-(2-Ethyl-5-fluoro-1-(4-(4-fluorophenoxy)benzylidene)-1H-inden-3-yl)acetic acid]
[1]
  inhibition at 10 µM: > 80%
[2]
  inhibition at 3.3 µM: ≥ 50%
  inhibition at 10 µM: ≥ 50%
HepG2 (liver cancer)
  inhibition at 3.3 µM: < 30%
  inhibition at 10 µM: 30 to 50%
SW480 (colon cancer)
  inhibition at 3.3 µM: ≥ 50%
  inhibition at 10 µM: ≥ 50%
[3]
  inhibition at 3.3 µM: 30 to 50%
  inhibition at 10 µM: ≥ 50%
[4]
  inhibition at 3.3 µM: 30 to 50%
  inhibition at 10 µM: ≥ 50%
[5]
  inhibition at 3.3 µM: 30 to 50%
  inhibition at 10 µM: ≥ 50%
HeLa (cervical cancer)
  inhibition at 3.3 µM: ≥ 50%
  inhibition at 10 µM: ≥ 50%

## CCC1=C(CC(=O)O)c2cc(F)ccc2/C1=C\c1cccc(Oc2ccccc2)c1 [C19, (Z)-2-(2-Ethyl-5-fluoro-1-(3-phenoxybenzylidene)-1H-inden-3-yl)acetic acid]
[1]
  inhibition at 10 µM: > 80%
[2]
  inhibition at 3.3 µM: ≥ 50%
  inhibition at 10 µM: ≥ 50%
HepG2 (liver cancer)
  inhibition at 3.3 µM: < 30%
  inhibition at 10 µM: 30 to 50%
SW480 (colon cancer)
  inhibition at 3.3 µM: < 30%
  inhibition at 10 µM: < 30%
[3]
  inhibition at 3.3 µM: < 30%
  inhibition at 10 µM: ≥ 50%
[4]
  inhibition at 3.3 µM: < 30%
  inhibition at 10 µM: ≥ 50%
[5]
  inhibition at 3.3 µM: 30 to 50%
  inhibition at 10 µM: ≥ 50%
HeLa (cervical cancer)
  inhibition at 3.3 µM: 30 to 50%
  inhibition at 10 µM: ≥ 50%

## CCCC1=C(CC(=O)O)c2cc(F)ccc2/C1=C\c1cccc(COc2ccccc2)c1 [A7, (Z)-2-(5-Fluoro-1-(3-(phenoxymethyl)benzylidene)-2-propyl-1H-inden-3-yl)-acetic acid]
[1]
  inhibition at 10 µM: > 80%
[2]
  inhibition at 3.3 µM: ≥ 50%
  inhibition at 10 µM: ≥ 50%
HepG2 (liver cancer)
  inhibition at 3.3 µM: ≥ 50%
  inhibition at 10 µM: < 30%
SW480 (colon cancer)
  inhibition at 3.3 µM: < 30%
  inhibition at 10 µM: ≥ 50%
[3]
  inhibition at 3.3 µM: 30 to 50%
  inhibition at 10 µM: ≥ 50%
[4]
  inhibition at 3.3 µM: < 30%
  inhibition at 10 µM: ≥ 50%
[5]
  inhibition at 3.3 µM: 30 to 50%
  inhibition at 10 µM: ≥ 50%
HeLa (cervical cancer)
  inhibition at 3.3 µM: < 30%
  inhibition at 10 µM: ≥ 50%
